Data from BigSolDB 2.1.

CCOc1ccc2ccccc2c1C(=O)O
solubility (mole fraction)
Settings	278.15 K	283.15 K	288.15 K	293.15 K	298.15 K	303.15 K	308.15 K	313.15 K	318.15 K	323.15 K
in acetone	0.0535	0.0606	0.0691	0.0781	0.089	0.0994	0.112	0.127	0.142	0.159
in acetonitrile	0.00615	0.00747	0.00921	0.011	0.0135	0.0165	0.022	0.0254	0.0308	0.0378
in ethanol	0.0268	0.0325	0.0392	0.0469	0.0565	0.0688	0.0836	0.101	0.119	0.136
in ethyl acetate	0.015	0.0174	0.0204	0.0239	0.0279	0.0331	0.038	0.0447	0.0526	0.0606
in isobutanol	0.0111	0.0138	0.0172	0.0208	0.0256	0.0322	0.0396	0.0508	0.0623	0.0779
in isopropanol	0.0148	0.0181	0.0228	0.0287	0.036	0.0459	0.058	0.0733	0.0901	0.112
in isopropyl acetate	0.0118	0.0136	0.0155	0.0185	0.0213	0.0245	0.029	0.0333	0.0389	0.0454
in methanol	0.0304	0.037	0.0443	0.0552	0.0671	0.0821	0.0951	0.114	0.134	0.151
in methyl acetate	0.0153	0.0181	0.0215	0.0254	0.0301	0.0356	0.0417	0.0495	0.0587	0.0693
in n-pentanol	0.0174	0.0205	0.0248	0.0296	0.0356	0.0431	0.052	0.0632	0.0744	0.0902
in n-propanol	0.0212	0.0236	0.0283	0.0345	0.0424	0.0511	0.0632	0.0779	0.092	0.114
in n-propyl acetate	0.0129	0.0149	0.0177	0.0204	0.024	0.028	0.0322	0.0381	0.0445	0.0516
